Reference: patent US11753409B2, “Crystalline salts of a B-RAF kinase inhibitor” (Xynomic Pharmaceuticals, Inc., priority 2017, dated 2023)
Entries after “also recorded” stand apart in the source; their conditions may differ. Where two headings read alike, the source gives them in different places.

Columns and labels:
[1] = Equilibrium solubility in various aqueous media (solubility after 2 h); assay type: physicochemical; details: for solubility at 2 h: thermodynamic from solid
Procedure: Saturated solutions are prepared in well plates by adding an appropriate volume of selected aqueous media (typically in the range of 0.25-1.5 mL) into each well which contains a known quantity of solid drug substance (typically in the range 0.5-5.0 mg). The wells are shaken or stirred for a predefined time period (typically in a range of 2-24 h) and then filtered using appropriate filter membranes (typically PTFE-filters with 0.45 μm pore size). Filter absorption is avoided by discarding the first few drops of filtrate. The amount of dissolved drug substance is determined by UV spectroscopy. In addition, the pH of the aqueous saturated solution is measured using a glass-electrode pH meter.
The equilibrium solubility of N-(3-(5-((1-Ethylpiperidin-4-yl)(methyl)amino)-3-(pyrimidin-5-yl)-1H-pyrrolo[3,2-b]pyridin-1-yl)-2,4-difluorophenyl)propane-1-sulfonamide monohydrochloride salt in various media was determined.
The solubility of N-(3-(5-((1-Ethylpiperidin-4-yl)(methyl)amino)-3-(pyrimidin-5-yl)-1H-pyrrolo[3,2-b]pyridin-1-yl)-2,4-difluorophenyl)propane-1-sulfonamide monosuccinate salt in various media was determined.

[2] = Intrinsic dissolution rate, rotating disc method; assay type: physicochemical
Procedure: The intrinsic dissolution rate of 3-(5-((1-ethylpiperidin-4-yl)(methyl)amino)-3-(pyrimidin-5-yl)-1H-pyrrolo[3,2-b]pyridin-1-yl)-2,4-difluorophenyl)propane-1-sulfonamide salts was determined in aqueous media covering a range of pH 1.1-7.4 using the rotating disc method which maintains a constant surface area.
The drug substance (5 mg) was compressed at 356.1 Newtons for 60 s to form a disk. These disks were mounted to sample holders which fit into a miniaturized dissolution testing apparatus. The dissolution media were stirred at 200 rpm at a temperature of 37° C. Samples were automatically withdrawn every second minute from the dissolution vessel and assayed by UV spectrophotometry.
The intrinsic dissolution rate of N-(3-(5-((1-ethylpiperidin-4-yl)(methyl)amino)-3-(pyrimidin-5-yl)-TH-pyrrolo[3,2-b]pyridin-1-yl)-2,4-difluorophenyl)propane-1-sulfonamide monohydrochloride salt in various media was measured in media at various pH values.
The intrinsic dissolution rate of N-(3-(5-((1-ethylpiperidin-4-yl)(methyl)amino)-3-(pyrimidin-5-yl)-1H-pyrrolo[3,2-b]pyridin-1-yl)-2,4-difluorophenyl)propane-1-sulfonamide monosuccinate salt in various media was measured in media at various pH values.

[3] = Pharmacokinetics following oral administration to rats; assay type: in vivo, HsdHan:WIST Norway rats; details: rat; for AUD: AUD range 0-24 h
Procedure: The pharmacokinetics of N-(3-(5-((1-ethylpiperidin-4-yl)(methyl)amino)-3-(pyrimidin-5-yl)-1H-pyrrolo[3,2-b]pyridin-1-yl)-2,4-difluorophenyl)propane-1-sulfonamide hydrochloride salt and N-(3-(5-((1-ethylpiperidin-4-yl)(methyl)amino)-3-(pyrimidin-5-yl)-1H-pyrrolo[3,2-b]pyridin-1-yl)-2,4-difluorophenyl)propane-1-sulfonamide […] following oral administration at 40 mg and 80 mg (dose calculated as the free base) to HsdHan:WIST Norway rats. Each salt was administered to 3 animals.

[4] = Sorption-desorption (DVS) of the salts with XRPD before and after; assay type: physicochemical
Procedure: Dynamic Vapor Sorption (DVS) was performed in a IGAsorp Water Sorption Analyzer from Hiden Isochema. Adsorption and desorption isotherms were performed at 25° C. with 10% RH step intervals ranging from 0% relative humidity up to 90% relative humidity.

[5] = Milling and compression stress followed by XRPD; assay type: physicochemical
Procedure: FIG. 20 is a plot of the XRPD of N-(3-(5-((1-ethylpiperidin-4-yl)(methyl)amino)-3-(pyrimidin-5-yl)-1H-pyrrolo[3,2-b]pyridin-1-yl)-2,4-difluorophenyl)propane-1-sulfonamide monohydrochloride salt following milling in a swing mill for 10 min. at 30 rps.
FIG. 21 is a plot of the XRPD of N-(3-(5-((1-ethylpiperidin-4-yl)(methyl)amino)-3-(pyrimidin-5-yl)-1H-pyrrolo[3,2-b]pyridin-1-yl)-2,4-difluorophenyl)propane-1-sulfonamide monohydrochloride salt following compression at 2000 N for 1 s to a tablet (diameter-5 mm).
FIG. 31 is a plot of the XRPD of N-(3-(5-((1-ethylpiperidin-4-yl)(methyl)amino)-3-(pyrimidin-5-yl)-1H-pyrrolo[3,2-b]pyridin-1-yl)-2,4-difluorophenyl)propane-1-sulfonamide monosuccinate salt following milling in a swing mill for 10 min. at 30 rps.
FIG. 32 is a plot of the XRPD of N-(3-(5-((1-ethylpiperidin-4-yl)(methyl)amino)-3-(pyrimidin-5-yl)-1H-pyrrolo[3,2-b]pyridin-1-yl)-2,4-difluorophenyl)propane-1-sulfonamide monosuccinate salt following compression at 2000 N for 1 s to a tablet (diameter-5 mm).

[6] = Heating to 170° C. and cooling to room temperature; assay type: physicochemical; details: heated to 170° C., cooled to room temperature
Procedure: Further XRPD, TGA, DSC and ^1H NMR analyses were performed after heating succinate Form A to 170° C. and then cooling to room temperature.

[7] = Intrinsic dissolution rate, rotating disc method; assay type: physicochemical; details: pH of medium 1.0 (0.1M HCl), 37° C.

CCCS(=O)(=O)Nc1ccc(F)c(-n2cc(-c3cncnc3)c3nc(N(C)C4CCN(CC)CC4)ccc32)c1F.O=C(O)CCC(=O)O [Monosuccinate Salt, N-(3-(5-((1-Ethylpiperidin-4-yl)(methyl)amino)-3-(pyrimidin-5-yl)-1H-pyrrolo[3,2-b]pyridin-1-yl)-2,4-difluorophenyl)propane-1-sulfonamide monosuccinate salt]
solubility at 2 h ([1]; 0.01 M HCl, simulated gastric fluid, HCl (0.01M)): > 50 µg/mL | solubility at 2 h ([1]; 0.1 M HCl, simulated gastric fluid, HCl (0.1M)): 200 µg/mL | Solubility compared with the monohydrochloride salt ([1]; a number of media tested): substantially higher | solubility at 2 h ([1]; aqueous buffer, 0.1M Citric acid): > 5000 µg/mL | solubility at 2 h ([1]; aqueous buffer, Acetate Buffer (pH 5.0)): > 5000 µg/mL | solubility at 2 h ([1]; aqueous buffer, McIlvaine Buffer (pH 2.2)): > 5000 µg/mL | solubility at 2 h ([1]; aqueous buffer, McIlvaine Buffer (pH 3.0)): > 5000 µg/mL | solubility at 2 h ([1]; aqueous buffer, McIlvaine Buffer (pH 4.0)): > 5000 µg/mL | solubility at 2 h ([1]; aqueous buffer, McIlvaine Buffer (pH 4.5)): > 5000 µg/mL | solubility at 2 h ([1]; aqueous buffer, McIlvaine Buffer (pH 5.0)): > 5000 µg/mL | solubility at 2 h ([1]; aqueous buffer, McIlvaine Buffer (pH 6.0)): 3700 µg/mL | solubility at 2 h ([1]; aqueous buffer, McIlvaine Buffer (pH 6.8)): > 5000 µg/mL | solubility at 2 h ([1]; aqueous buffer, McIlvaine Buffer (pH 7.4)): 300 µg/mL | solubility at 2 h ([1]; aqueous buffer, Phosphate Buffer (pH 6.8)): > 5000 µg/mL | solubility at 2 h ([1]; aqueous buffer, Sorensen Buffer (pH 9.0)): 1 µg/mL | solubility at 2 h ([1]; aqueous buffer, Sorensen Buffer (pH 11)): 50 µg/mL | solubility at 2 h ([1]; Simulated intestinal fluid (FaSSIF)): 3 µg/mL | solubility at 2 h ([1]; Simulated intestinal fluid (FeSSIF)): 400 µg/mL | solubility at 2 h ([1]; water): > 2000 µg/mL | Intrinsic dissolution rate compared with the monohydrochloride salt [2]: substantially higher | Intrinsic Dissolution Rate ([2]; pH of medium 2.2, 37° C.): 6844 μg/cm^2/min. | Intrinsic Dissolution Rate ([2]; pH of medium 3.0, 37° C.): 6605 μg/cm^2/min. | Intrinsic Dissolution Rate ([2]; pH of medium 4.5, 37° C.): 2457 μg/cm^2/min. | Intrinsic Dissolution Rate ([2]; pH of medium 6.8, 37° C.): 2533 μg/cm^2/min. | Intrinsic Dissolution Rate ([2]; pH of medium 7.4, 37° C.): <1 μg/cm^2/min. | AUD ([3]; 40 mg/kg oral): 30.3 µM·h | AUD ([3]; 80 mg/kg oral): 25.1 µM·h | Tmax ([3]; HsdHan:WIST, in vivo, 40 mg/kg oral): 2 h | Tmax ([3]; HsdHan:WIST, in vivo, 80 mg/kg oral): 2.7 h | bioavailability ([3]; HsdHan:WIST, plasma, po, 40 mg/kg dose): 50% | Cmax ([3]; HsdHan:WIST, plasma, 40 mg/kg oral): 6550 nM | Cmax ([3]; HsdHan:WIST, plasma, 80 mg/kg oral): 3520 nM | concentration at 24 h ([3]; HsdHan:WIST, in vivo, po, 40 mg/kg, Time 24.0, 40 mg/kg oral, mean n = 3, read-out: Blood Plasma Concentrations): 3.98 nM | concentration at 24 h ([3]; HsdHan:WIST, in vivo, po, 80 mg/kg, Time 24.0, 80 mg/kg oral, mean n = 3, read-out: Blood Plasma Concentrations): 5.09 nM | concentration at 24 h ([3]; Time 0.5, 40 mg/kg oral, mean n = 3, read-out: Blood Plasma Concentrations): 523 nM | concentration at 24 h ([3]; Time 0.5, 80 mg/kg oral, mean n = 3, read-out: Blood Plasma Concentrations): 274 nM | concentration at 24 h ([3]; Time 1.0, 40 mg/kg oral, mean n = 3, read-out: Blood Plasma Concentrations): 1320 nM | concentration at 24 h ([3]; Time 1.0, 80 mg/kg oral, mean n = 3, read-out: Blood Plasma Concentrations): 638 nM | concentration at 24 h ([3]; Time 2.0, 40 mg/kg oral, mean n = 3, read-out: Blood Plasma Concentrations): 6550 nM | concentration at 24 h ([3]; Time 2.0, 80 mg/kg oral, mean n = 3, read-out: Blood Plasma Concentrations): 3380 nM | concentration at 24 h ([3]; Time 4.0, 40 mg/kg oral, mean n = 3, read-out: Blood Plasma Concentrations): 3860 nM | concentration at 24 h ([3]; Time 4.0, 80 mg/kg oral, mean n = 3, read-out: Blood Plasma Concentrations): 2620 nM | concentration at 24 h ([3]; Time 6.0, 40 mg/kg oral, mean n = 3, read-out: Blood Plasma Concentrations): 1140 nM | concentration at 24 h ([3]; Time 6.0, 80 mg/kg oral, mean n = 3, read-out: Blood Plasma Concentrations): 1420 nM | Exposure values compared with the monohydrochloride salt ([3]; oral): substantially higher | Change in structure (XRPD) after sorption-desorption experiment ([4]; XRPD before and after, monosuccinate salt): no change in crystallinity or polymorphic form; also recorded: no significant change in structure occurred | Reversible weight gain (isotherm sorption-desorption) ([4]; range from 0-80% relative humidity): approximately 0.25% | Reversible weight gain (isotherm sorption-desorption) ([4]; range from 0-90% relative humidity): approximately 0.4% | Weight gain (sorption-desorption) ([4]; range from 10-90% relative humidity, scale-up sample): approximately 1.2% | Crystallinity and polymorphic form after compression (XRPD) ([5]; 2000 N for 1 s to a tablet (diameter 5 mm)): no significant decrease in crystallinity or change in polymorphic form | Crystallinity and polymorphic form after milling (XRPD) ([5]; swing mill for 10 min. at 30 rps): slight decrease in crystallinity but no change in polymorphic form | Crystalline form after heating (XRPD) [6]: still succinate Type A | Intrinsic Dissolution Rate [7]: 201 μg/cm^2/min.
